Results: US4665169A, “Carbapenem antibiotics” (Bristol-Myers Company, priority 1985, dated 1987)
Converted amounts (≈) assume the structure as drawn. Read-outs that look alike come from different tables or passages of the source.

Assays:
[1] = system: S. pneumoniae A-9585; assay: In vitro antibacterial activity, MIC by tube dilution; assay type: cell-based; details: Streptococcus pneumoniae, overnight 37° C., Nutrient Broth
[2] = system: S. pyogenes A-9604; assay: as above; assay type: cell-based; details: overnight 37° C., Nutrient Broth
[3] = system: S. faecalis A20688; assay: as above; assay type: cell-based; details: overnight 37° C., Nutrient Broth
[4] = system: S. aureus A-9537; assay: as above; assay type: cell-based; details: overnight 37° C., Nutrient Broth
[5] = system: S. aureus A-9537; assay: In vitro antibacterial activity, MIC by tube dilution, 50% serum; assay type: cell-based
[6] = system: S. aureus (Penicillin-resistant) A-9606; assay: In vitro antibacterial activity, MIC by tube dilution; assay type: cell-based; details: Staphylococcus aureus, Nutrient Broth
[7] = system: E. coli A15119; assay: as above; assay type: cell-based; details: Escherichia coli, overnight 37° C., Nutrient Broth
[8] = system: E. coli A20341-1; assay: as above; assay type: cell-based; details: Escherichia coli, overnight 37° C., Nutrient Broth
[9] = system: K. pneumoniae A-9664; assay: as above; assay type: cell-based; details: Klebsiella pneumoniae, A9664; Lot# 1794-20; overnight 37° C., Nutrient Broth
[10] = system: K. pneumoniae A20468; assay: as above; assay type: cell-based; details: Klebsiella pneumoniae, A20468, Lot# 1794-27; overnight 37° C., Nutrient Broth
[11] = system: E. cloacae A-9659; assay: as above; assay type: cell-based; details: Enterobacter cloacae, A9659, Lot# 1794-27; overnight 37° C., Nutrient Broth
[12] = system: E. cloacae A-9656; assay: as above; assay type: cell-based; details: Enterobacter cloacae, A9656, Lot# 1794-27; overnight 37° C., Nutrient Broth
[13] = system: P. mirabilis A-9900; assay: as above; assay type: cell-based; details: overnight 37° C., Nutrient Broth
[14] = system: P. vulgaris A21559; assay: as above; assay type: cell-based; details: overnight 37° C., Nutrient Broth
[15] = system: S. marcescens A20019; assay: as above; assay type: cell-based; details: overnight 37° C., Nutrient Broth
[16] = system: P. aeruginosa A-9843A; assay: as above; assay type: cell-based; details: overnight 37° C., Nutrient Broth
[17] = Blood levels in mice after intramuscular dosing; assay type: in vivo; details: mouse, im, 20 mg/kg; for AUC / Cmax / Tmax / half-life: 20 mg/kg i.m.; for concentration at 10 min: 10 min after 20 mg/kg i.m.; for concentration at 20 min: 20 min after 20 mg/kg i.m.; for concentration at 0.5 h: 30 min after 20 mg/kg i.m.; for concentration at 0.75 h: 45 min after 20 mg/kg i.m.; for concentration at 1 h: 60 min after 20 mg/kg i.m.; for concentration at 1.5 h: 90 min after 20 mg/kg i.m.
Method: For the determination of blood levels, two groups of mice were used. Each group consisted of four 20 g mice. Prior to dosing (5-10 min.) one of the groups received an i.p. injection of a dipeptidase inhibitor (BCH-1) at a level of 10 mg/kg.

[18] = Urinary recovery in mice; assay type: in vivo; details: mouse, urine; for dose excreted at 3 h: 0-3 hr.
Method: Two groups of mice were used for the urinary recovery evaluation. Each group consisted of four 20 g mice. Prior to dosing (5-10 minutes) one of the groups received an i.p. injestion of a dipeptidase inhibitor (BCH-1) at a level of 10 mg/kg. Following dosing, animals were placed in individual metabolism cages and the urine collected over ice at intervals of 0-3 and 3-6 hr. Animals were fasted overnight and a dextrose-amino acid solution was available ad libitum starting one hour before drug administration through six hours of urine collection. Urine samples were assayed for biological activity using sensitive assay plates containing B. subtilis ATCC 6633.

[19] = system: P. aeruginosa A9843a; assay: In vivo activity, 50% protective dose in infected mice; details: Pseudomonas aeruginosa, im, 120 h, i.m., immediately and 2 hour post-infection, deaths over five days, read-out: PD50 (50% protective dose)
Method: BHI broth (9.0 ml) was inoculated with a loopful of thawed stock suspension of P. aeruginosa A9843a and incubated for 18 hr at 37° C. A volume of 0.5 ml of the 18 hr culture was added to 20 ml BHI broth and incubated for 3 hr. with constant shaking at 37° C. A 1/10,000 dilution of the shaker culture was prepared in 0.4% hog gastric mucin. Mice were infected by the intraperitoneal route with 0.5 ml of the bacterial suspension (corresponding to 6.0×10^4 viable cells/mouse).
Each mouse received a volume of 0.2 ml intramuscularly. Deaths were recorded over a period of five days following infection at which time the PD50 for the compound was determined by estimation of the 50% end-point using the probit analysis plot.

[20] = system: P. aeruginosa (Carbenicillin-resistant) A21213; details: Lot# 1794-27, overnight 37° C., Nutrient Broth
[21] = system: P. aeruginosa (Carbenicillin-resistant) A21213; assay: microbe, parasite or virus in culture; details: Pseudomonas aeruginosa
[22] = Half-life in pH 7.4 biological buffer; assay type: physicochemical; details: 37° C.
Method: To a cooled (5° C.) solution of (5R,6S)p-nitrobenzyl-6-(1^1 R-hydroxyethyl)-4R-methyl-3-(1-methyl-4-thiatetrahydrothiopyranium)-7-oxo- 1-azabicyclo[3.2.0]hept-2-ene-2-carboxyl-diphenylphosphate (2.40 g, 3.23 mmol) in tetrahydrofuran (240 mL) and 0.05M pH 7.0 phosphate buffer (240 mL) was added ether (240 mL) and 10% Pd/C (2.4 g). The mixture was hydrogenated in a Paar apparatus at 45 psi H2 at 15° C. for 1 hour. The solution was then filtered through glass fiber paper and the catalyst was washed with water (25 mL). The aqueous phase of the filtrate was washed with ether (2×100 mL) and purged under vacuum to remove any trace of organic solvent. The product was purified by reversed phase chromatography on μBondapak C-18 silica gel (100 g) using mixtures of acetonitrile-water as the eluent (10% CH3 CN--H2 O, quantity mL; 0%, 500 mL; 2%, 500 mL; 4%, 500 mL; 10%, 250 mL) to give 1.08 g of impure proudct. After lyophilization, this product and a 0.020 g sample from another experiment (starting from 0.067 mmol of the ester) was purified by hplc (hplc data re: C18 μBondapak, using 5% CH3 CN--H2 O at 4 mL/min, R. I. detector) to give 328 mg. […]

[23] = system: various Pseudomonas species; details: prior art statement; cited from earlier work

SMILES: C[C@@H](O)[C@H]1C(=O)N2C(C(=O)[O-])=C(SC3CC[S+](C)CC3)C[C@H]12 (some centres unmarked) [Example 1]
- MIC ([1]; A9585, Lot# 1794-20): 0.001 µg/mL (≈ 0.00291 µM)
- MIC ([1]; A9585, Lot# 1794-27): 0.002 µg/mL (≈ 0.00582 µM)
- MIC ([2]; Lot# 1794-27): 0.004 µg/mL (≈ 0.0116 µM)
- MIC ([2]; Streptococcus pyogenes, A9604, Lot# 1794-20, read-out: MIC): 0.004 µg/mL (≈ 0.0116 µM)
- MIC ([3]; Enterococcus faecalis, A20688, Lot# 1794-20, read-out: MIC): 0.5 µg/mL (≈ 1.46 µM)
- MIC ([3]; Lot# 1794-27): 0.5 µg/mL (≈ 1.46 µM)
- MIC ([4]; Lot# 1794-27): 0.008 µg/mL (≈ 0.0233 µM)
- MIC ([4]; Staphylococcus aureus, A9537, Lot# 1794-20, read-out: MIC): 0.008 µg/mL (≈ 0.0233 µM)
- MIC ([5]; Lot# 1794-27, overnight 37° C.): 0.016 µg/mL (≈ 0.0466 µM)
- MIC ([5]; Staphylococcus aureus, A9537, Lot# 1794-20, overnight 37° C., read-out: MIC): 0.016 µg/mL (≈ 0.0466 µM)
- MIC ([6]; Lot# 1794-20, overnight 37° C.): 0.016 µg/mL (≈ 0.0466 µM)
- MIC ([6]; Lot# 1794-27, overnight 37° C.): 0.03 µg/mL (≈ 0.0873 µM)
- MIC ([7]; A15119, Lot# 1794-20): 0.008 µg/mL (≈ 0.0233 µM)
- MIC ([7]; A15119, Lot# 1794-27): 0.016 µg/mL (≈ 0.0466 µM)
- MIC ([8]; A203411, Lot# 1794-20): 0.016 µg/mL (≈ 0.0466 µM)
- MIC ([8]; A203411, Lot# 1794-27): 0.03 µg/mL (≈ 0.0873 µM)
- MIC [9]: 0.03 µg/mL (≈ 0.0873 µM)
- MIC [10]: 0.25 µg/mL (≈ 0.728 µM)
- MIC [11]: 0.25 µg/mL (≈ 0.728 µM)
- MIC [12]: 0.25 µg/mL (≈ 0.728 µM)
- MIC ([13]; Lot# 1794-27): 0.016 µg/mL (≈ 0.0466 µM)
- MIC ([13]; Proteus mirabilis, A9900, Lot# 1794-20, read-out: MIC): 0.016 µg/mL (≈ 0.0466 µM)
- MIC ([14]; Lot# 1794-27): 0.016 µg/mL (≈ 0.0466 µM)
- MIC ([14]; Proteus vulgaris, A21559, Lot# 1794-20, read-out: MIC): 0.016 µg/mL (≈ 0.0466 µM)
- MIC ([15]; Lot# 1794-27): 0.03 µg/mL (≈ 0.0873 µM)
- MIC ([15]; Serratia marcescens, A20019, Lot# 1794-20, read-out: MIC): 0.03 µg/mL (≈ 0.0873 µM)
- MIC ([16]; Lot# 1794-27): 2 µg/mL (≈ 5.82 µM)
- MIC ([16]; Pseudomonas aeruginosa, A9843A, Lot# 1794-20, read-out: MIC): 2 µg/mL (≈ 5.82 µM)
- AUC ([17]; with BCH-1 10 mg/kg i.p.): 10900 ng·h/mL
- Cmax ([17]; with BCH-1 10 mg/kg i.p.): 16100 ng/mL
- Tmax ([17]; with BCH-1 10 mg/kg i.p.): 20 min
- half-life ([17]; with BCH-1 10 mg/kg i.p.): 10 min
- AUC ([17]; without BCH-1): 6800 ng·h/mL
- Cmax ([17]; without BCH-1): 15400 ng/mL
- Tmax ([17]; without BCH-1): 10 min
- half-life ([17]; without BCH-1): 9 min
- concentration at 10 min ([17]; with BCH-1 10 mg/kg i.p.): 15400 ng/mL
- concentration at 10 min ([17]; without BCH-1): 15400 ng/mL
- concentration at 20 min ([17]; with BCH-1 10 mg/kg i.p.): 16100 ng/mL
- concentration at 20 min ([17]; without BCH-1): 11400 ng/mL
- concentration at 0.5 h ([17]; with BCH-1 10 mg/kg i.p.): 12600 ng/mL
- concentration at 0.5 h ([17]; without BCH-1): 7200 ng/mL
- concentration at 0.75 h ([17]; with BCH-1 10 mg/kg i.p.): 7400 ng/mL
- concentration at 0.75 h ([17]; without BCH-1): 2900 ng/mL
- concentration at 1 h ([17]; with BCH-1 10 mg/kg i.p.): 3000 ng/mL
- concentration at 1 h ([17]; without BCH-1): 700 ng/mL
- concentration at 1.5 h ([17]; with BCH-1 10 mg/kg i.p.): 300 ng/mL
- concentration at 1.5 h ([17]; without BCH-1): 300 ng/mL
- dose excreted at 3 h ([18]; with BCH-1 10 mg/kg i.p., read-out: Percent Recovered (urine)): 67%
- dose excreted at 3 h ([18]; without BCH-1, read-out: Percent Recovered (urine)): 44%
- dose excreted at 6 h ([18]; 0-6 hr., with BCH-1 10 mg/kg i.p., read-out: Percent Recovered (urine)): 67.1%
- dose excreted at 6 h ([18]; 0-6 hr., without BCH-1, read-out: Percent Recovered (urine)): 44.2%
- dose excreted at 6 h ([18]; 3-6 hr., with BCH-1 10 mg/kg i.p., read-out: Percent Recovered (urine)): 0.1%
- dose excreted at 6 h ([18]; 3-6 hr., without BCH-1, read-out: Percent Recovered (urine)): 0.2%
- ED50 [19]: 0.71 mg/kg
- MIC [20]: 0.25 µg/mL (≈ 0.728 µM)
- MIC [21]: 0.25 µg/mL (≈ 0.728 µM)

SMILES: C[C@@H](O)[C@H]1C(=O)N2C(C(=O)[O-])=C(SC3CC[S+](C)CC3)[C@H](C)[C@H]12 (stereo partly drawn) [Example 2, (5R,6S)-6-(1R-hydroxyethyl)-4R-methyl-3-(1-methyl-4-thiatetrahydrothiopyranium)-7-oxo-1-azabicyclo[3.2.0]-hept-2-ene-2-carboxylate]
- half-life [22]: 1800 min

SMILES: C[C@@H](O)[C@H]1C(=O)N2C(C(=O)O)=C(SCCN)C[C@H]12 [Thienamycin, thienamycin]
- activity against various Pseudomonas species [23]: notable activity
